Where two headings read alike, the source gives them in different places. Some results are limits rather than exact numbers.

The DC50 is the concentration giving 50% degradation. Broadly, the Dmax is the largest share of the target that was removed.

This assay has as its target T1, Androgen Receptor (Homo sapiens, UniProt P10275).
T1 construct: endogenous in cells; host or cells: VCaP cells
T1 sequence (P10275 1-920): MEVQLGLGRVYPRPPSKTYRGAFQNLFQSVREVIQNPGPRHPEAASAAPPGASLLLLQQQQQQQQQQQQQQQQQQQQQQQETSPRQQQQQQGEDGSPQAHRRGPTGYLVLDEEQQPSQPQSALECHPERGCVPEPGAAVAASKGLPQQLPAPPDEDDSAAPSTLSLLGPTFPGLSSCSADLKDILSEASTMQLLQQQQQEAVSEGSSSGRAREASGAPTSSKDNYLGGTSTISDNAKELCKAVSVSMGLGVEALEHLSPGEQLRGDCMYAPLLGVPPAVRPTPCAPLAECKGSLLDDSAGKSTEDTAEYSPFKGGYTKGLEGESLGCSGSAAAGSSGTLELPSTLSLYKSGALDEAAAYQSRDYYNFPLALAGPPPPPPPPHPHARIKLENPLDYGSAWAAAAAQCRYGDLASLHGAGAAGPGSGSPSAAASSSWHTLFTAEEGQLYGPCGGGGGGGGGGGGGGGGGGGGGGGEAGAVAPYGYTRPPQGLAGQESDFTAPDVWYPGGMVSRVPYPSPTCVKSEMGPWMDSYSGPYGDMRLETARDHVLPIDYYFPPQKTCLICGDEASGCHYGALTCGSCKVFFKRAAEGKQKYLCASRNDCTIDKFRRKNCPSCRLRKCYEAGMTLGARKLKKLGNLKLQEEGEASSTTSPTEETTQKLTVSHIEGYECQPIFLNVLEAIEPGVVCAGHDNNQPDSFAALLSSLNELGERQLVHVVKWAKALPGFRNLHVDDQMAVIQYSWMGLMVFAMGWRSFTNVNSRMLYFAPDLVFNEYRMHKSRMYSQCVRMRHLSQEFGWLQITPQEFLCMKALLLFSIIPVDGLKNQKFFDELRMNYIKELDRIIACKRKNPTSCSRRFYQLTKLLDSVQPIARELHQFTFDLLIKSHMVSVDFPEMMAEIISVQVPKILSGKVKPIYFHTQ
The assay can be described thus: Androgen Receptor ELISA assay (PathScan AR ELISA) in VCaP cells: AR degradation, Dmax and DC50. It is filed as cell-based. An outline of the steps:
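After 24 h exposure of VCaP cells (charcoal-stripped serum, 0.1 nM R1881 agonist, 0.1% DMSO) to seven half-log compound concentrations, residual AR in lysates was measured by PathScan ELISA (TMB absorbance, 450 nm). Cells were plated at 30,000/well and grown at least 3 days beforehand.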
(In an ELISA, binding on a coated surface is turned into a signal by an enzyme label.)

[1] abbreviates: VCaP cells; Table 36; read-out: VCaP DC50.
[2] abbreviates: VCaP, VCaP cells; Table 36; read-out: VCaP Dmax (%).
Where [3] appears, read: read-out: VCaP DC50; VCaP cells; Table 36.

For `Cc1nccn1-c1ccc([C@H](C)NC(=O)C2C[C@@H](O)CN2C(=O)C(NC(=O)COCC2CCN(c3ccc(C(=O)N[C@H]4C(C)(C)[C@H](Oc5ccc(C#N)c(Cl)c5)C4(C)C)cn3)CC2)C(C)(C)C)cc1` (stereo partly drawn) [Example 606, N-((1r,3r)-3-(3-chloro-4-cyanophenoxy)-2,2,4,4-tetramethylcyclobutyl)-6-(4-((2-(((S)-1-((2S,4R)-4-hydroxy-2-(((S)-1-(4-(2-methyl-1H-imidazol-1-yl)phenyl)ethyl)carbam-oyl)pyrrolidin-1-yl)-3,3-dimethyl-1-oxobutan-2-yl)amino)-2-oxoethoxy)methyl)piper-idin-1-yl)nicotinamide], under setting [1], the DC50 is less than 50 nM. Besides, the Dmax under setting [2] lay within 51 to 70%.

With `Cc1ncsc1-c1ccc([C@H](C)NC(=O)[C@@H]2C[C@@H](O)CN2C(=O)[C@@H](NC(=O)COCCCCCNc2ccc(C(=O)N[C@H]3C(C)(C)[C@H](Oc4ccc(C#N)c(Cl)c4)C3(C)C)nn2)C(C)(C)C)cc1` [Example 607, N-((1r,3r)-3-(3-chloro-4-cyanophenoxy)-2,2,4,4-tetramethylcyclobutyl)-6-((5-(2-(((S)-1-((2S,4R)-4-hydroxy-2-(((S)-1-(4-(4-methylthiazol-5-yl)phenyl)ethyl)carbam-oyl)pyrrolidin-1-yl)-3,3-dimethyl-1-oxobutan-2-yl)amino)-2-oxoethoxy)pentyl)amino) pyridazine-3-carboxamide], under setting [1], the DC50 is greater than 501 nM. Further, under “VCaP, read-out: VCaP Dmax (%), VCaP cells; Table 36”, the Dmax is 26 to 50%.

As for `Cc1ncsc1-c1ccc([C@H](C)NC(=O)[C@@H]2C[C@@H](O)CN2C(=O)[C@H](C(C)C)n2cc(-c3ccnc(N4CC[C@H](Oc5ccc(N6C(=S)N(c7ccc(C#N)c(C(F)(F)F)c7)C(=O)C6(C)C)cc5)C4)c3)cn2)cc1` [Example 609], the Dmax (VCaP, read-out: VCaP Dmax (%)) was less than 25%. The DC50 under setting [3] was greater than 501 nM.

`Cc1ncsc1-c1ccc([C@H](C)NC(=O)[C@@H]2C[C@@H](O)CN2C(=O)[C@@H](C(C)C)n2cc(-c3ccnc(N4CC[C@H](Oc5ccc(N6C(=S)N(c7ccc(C#N)c(C(F)(F)F)c7)C(=O)C6(C)C)cc5)C4)c3)cn2)cc1` [Example 610, (2S,4R)-1-((R)-2-(4-(2-((S)-3-(4-(3-(4-cyano-3-(trifluoromethyl)phenyl)-5,5-dimethyl-4-oxo-2-thioxoimidazolidin-1-yl)phenoxy)pyrrolidin-1-yl)pyridin-4-yl)-1H-pyrazol-1-yl)-3-methylbutanoyl)-4-hydroxy-N-((S)-1-(4-(4-methylthiazol-5-yl)phenyl)ethyl)pyrroli-dine-2-carboxamide]: where the note is “VCaP, read-out: VCaP Dmax (%)”, the Dmax was less than 25%. Also, the DC50 under setting [3] is greater than 501 nM.

As for `Cc1nccn1-c1ccc([C@H](C)NC(=O)[C@@H]2C[C@@H](O)CN2C(=O)[C@H](C(C)C)n2cc(OCCCOCCCCCOc3ccc(N4C(=S)N(c5ccc(C#N)c(C(F)(F)F)c5)C(=O)C4(C)C)cc3)cn2)cc1` [Example 611, (2S,4R)-1-((S)-2-(4-(3-((5-(4-(3-(4-cyano-3-(trifluoromethyl)phenyl)-5,5-dimethyl-4-oxo-2-thioxoimidazolidin-1-yl)phenoxy)pentyl)oxy)propoxy)-1H-pyrazol-1-yl)-3-methylbutanoyl)-4-hydroxy-N-((S)-1-(4-(2-methyl-1H-imidazol-1-yl)phenyl)ethyl)pyrrolidine-2-carboxamide], where the note is “VCaP, read-out: VCaP Dmax (%)”, the Dmax is less than 25%. For the same molecule, the DC50 under setting [3] is greater than 501 nM.

For the molecule `Cc1ncsc1-c1ccc([C@H](C)NC(=O)[C@@H]2C[C@@H](O)CN2C(=O)C(NC(=O)COCCCOCC[C@@H](O)CCOc2ccc(N3C(=S)N(c4ccc(C#N)c(C(F)(F)F)c4)C(=O)C3(C)C)cc2)C(C)(C)C)cc1` (some centres unmarked) [Example 613, 1-(2-(2-(3-((5-(4-(3-(4-cyano-3-(trifluoromethyl)phenyl)-5,5-dimethyl-4-oxo-2-thioxoimidazolidin-1-yl)phenoxy)-3-hydroxypentyl)oxy)pro-poxy)acetamido)-3,3-dimethylbutanoyl)-4-hydroxy-N-(1-(4-(4-methylthiazol-5-yl)phenyl)ethyl)pyrrolidine-2-carboxamide], under “VCaP, read-out: VCaP Dmax (%)”, the Dmax lay in the range of 26 to 50%. In addition, the DC50 under setting [3] is greater than 501 nM.

In the case of `Cc1ncsc1-c1ccc([C@H](C)NC(=O)[C@@H]2C[C@@H](O)CN2C(=O)[C@@H](NC(=O)CN2CCO[C@H](COCCCCCOc3ccc(N4C(=S)N(c5ccc(C#N)c(C(F)(F)F)c5)C(=O)C4(C)C)cc3)C2)C(C)(C)C)cc1` [Example 614, (2S,4R)-1-((S)-2-(2-((S)-2-(((5-(4-(3-(4-cyano-3-(trifluoromethyl)phenyl)-5,5-dimethyl-4-oxo-2-thioxoimidazolidin-1-yl)phenoxy)pentyl)oxy)methyl)morpholino)ace-tamido)-3,3-dimethylbutanoyl)-4-hydroxy-N-((S)-1-(4-(4-methylthiazol-5-yl)phenyl)ethyl)pyrrolidine-2-carboxamide], the Dmax (VCaP, read-out: VCaP Dmax (%)) fell in the range of 26 to 50%. For the same molecule, under setting [3], the DC50 was greater than 501 nM.

As for `Cc1ncsc1-c1ccc([C@H](C)NC(=O)[C@@H]2C[C@@H](O)CN2C(=O)[C@@H](NC(=O)CN2CCN(CCOc3ccc(C(=O)N[C@H]4C(C)(C)[C@H](Oc5ccc(C#N)c(Cl)c5)C4(C)C)cc3)CC2)C(C)(C)C)cc1` [Example 615, (2S,4R)-1-((S)-2-(2-(4-(2-(4-(((1r,3r)-3-(3-chloro-4-cyanophenoxy)-2,2,4,4-tetramethylcyclobutyl)carbamoyl)phenoxy)eth-yl)piperazin-1-yl)acetamido)-3,3-dimethylbutanoyl)-4-hydroxy-N-((S)-1-(4-(4-methylthiazol-5-yl)phenyl)ethyl)pyrrolidine-2-carboxamide], the DC50 under setting [1] was less than 50 nM. Besides, under setting [2], the Dmax was greater than 71%.

As for `Cc1ncsc1-c1ccc([C@H](C)NC(=O)[C@@H]2C[C@@H](O)CN2C(=O)C(C(C)C)n2cnc(-c3ccnc(N4CC[C@H](Oc5ccc(N6C(=S)N(c7ccc(C#N)c(C(F)(F)F)c7)C(=O)C6(C)C)cc5)C4)c3)c2)cc1` (some centres unmarked) [Example 617, 1-(2-(4-(2-(3-(4-(3-(4-cyano-3-(trifluoromethyl)phenyl)-5,5-dimethyl-4-oxo-2-thioxoimidazolidin-1-yl)phenoxy)pyrrolidin-1-yl)pyridin-4-yl)-1H-imidazol-1-yl)-3-methylbutanoyl)-4-hydroxy-N-(1-(4-(4-methylthiazol-5-yl)phenyl)ethyl)pyrrolidine-2-carboxamide], the Dmax (VCaP, read-out: VCaP Dmax (%)) is less than 25%. Further, the DC50 under setting [3] is greater than 501 nM.

Consider `Cc1ncsc1-c1ccc([C@H](C)NC(=O)[C@@H]2C[C@@H](O)CN2C(=O)[C@@H](NC(=O)COCCCOCCCCCNc2ccc(N3C(=S)N(c4ccc(C#N)c(C(F)(F)F)c4)C(=O)C3(C)C)cn2)C(C)(C)C)cc1` [Example 618, (2S,4R)-1-((S)-2-(2-(3-((5-((5-(3-(4-cyano-3-(trifluoromethyl)phenyl)-5,5-dimethyl-4-oxo-2-thioxoimidazolidin-1-yl)pyridin-2-yl)amino)pentyl)oxy)pro-poxy)acetamido)-3,3-dimethylbutanoyl)-4-hydroxy-N-((S)-1-(4-(4-methylthiazol-5-yl)phenyl)ethyl)pyrrolidine-2-carboxamide], for which, under “VCaP, read-out: VCaP Dmax (%)”, the Dmax was 51 to 70%. For the same molecule, the DC50 under setting [3] is less than 50 nM.

The record behind these values is patent US11427548B2 (Arvinas Operations, Inc., priority 2015, dated 2022).
